In US20240255506A1, “PAIRED-CELL PROFILING SYSTEMS FOR HIGH-THROUGHPUT SCREENING SYNCYTIUM FORMATION” (priority 2023, published 2024):

Experiments:
[1] = tested on: SARS-COV-2 spike-induced syncytium formation in A549-ACE2 cells; format: cell-based; details: A549-ACE2-GFP1-10 receiver cells, HEK293T-GFP-11 sender cells expressing WT D614G spike; drugs added 3 h after seeding, imaged after 24 h; vs DMSO-treated control
[2] = tested on: SARS-COV-2 spike-induced syncytium formation in Vero E6 cells; format: cell-based; details: Vero E6-GFP1-10 receiver cells, HEK293T-GFP-11 sender cells expressing WT D614G spike; drugs added 3 h after seeding, imaged after 24 h; vs DMSO-treated control
[3] = tested on: SARS-COV-2 D614G live virus; format: cell-based; details: Vero E6 and Vero E6-TMPRSS2 GFP1-10/GFP11 cells; CPZ 16 μM, promethazine 12.5 μM, fluvoxamine 12.5 μM, 24 h
[4] = tested on: SARS-COV-2 D614G virus; format: cell-based; details: both cell lysate and supernatant samples after virus infection; Vero E6, Vero E6-TMPRSS2 and A549-ACE2 cells
[5] = tested on: SARS-COV-2 D614G; details: hamster, in vivo; for infectious SARS-COV-2 titer in lung tissues (plaque assay) / virus RdRp gene expression level in lung tissues: ip

| SMILES | syncytium formation [1] | syncytium formation [2] | syncytium formation in SARS-COV-2 D614G-infected cells [3] | expression levels of SARS-COV-2 RNA-dependent RNA polymerase (RdRp) [4] | area of positivity of the SARS-COV-2 nucleocapsid protein in lung tissues [5] | body weight of the hamsters [5] | syncytium-like multinucleated cells within SARS-COV-2 nucleocapsid-positively stained lung tissues [5] | infectious SARS-COV-2 titer in lung tissues (plaque assay) [5] | virus RdRp gene expression level in lung tissues [5] |
| --- | --- | --- | --- | --- | --- | --- | --- | --- | --- |
| CC(CN1c2ccccc2Sc2ccccc21)N(C)C (stereo not shown) [promethazine] | greatly impeded syncytium formation | greatly impeded syncytium formation | inhibited syncytium formation | greatly reduced | – | – | – | – | – |
| COCCCC/C(=N\OCCN)c1ccc(C(F)(F)F)cc1 [fluvoxamine] | greatly impeded syncytium formation | greatly impeded syncytium formation | inhibited syncytium formation | greatly reduced | reduced | no significant change | less syncytium-like multinucleated cells were detected | reduced | reduced |
| CN(C)CCCN1c2ccccc2Sc2ccc(Cl)cc21 [chlorpromazine] | greatly impeded syncytium formation | greatly impeded syncytium formation | inhibited syncytium formation | greatly reduced | reduced | no significant change | less syncytium-like multinucleated cells were detected | reduced | reduced |
